In patent EP4635565A1, “PRENYLATED TETRAHYDROQUINOLINES AND QUINOLINES WITH PPAR AGONIST ACTIVITY” (Fundación para la Investigación del Hospital Clínico de la …, priority 2024, dated 2025):

Key:
[1] = biological target: T1, hPPARβ/δ (Homo sapiens, UniProt Q03181); test: PPAR transactivation assay, human chimeric PPAR/Gal4 reporter luciferase system in Cos-7 cells (PPARβ/δ); assay type: cell-based; details: for Emax at 10 µM: COS-7, read-out: Efficacy (%) at 10 µmol/L PPARβ/δ; for EC50: human PPARβ/δ/Gal4, Cos-7 cells, concentration range 0.001-10 µmol/L, NA: not active
T1 sequence (Q03181 171-441): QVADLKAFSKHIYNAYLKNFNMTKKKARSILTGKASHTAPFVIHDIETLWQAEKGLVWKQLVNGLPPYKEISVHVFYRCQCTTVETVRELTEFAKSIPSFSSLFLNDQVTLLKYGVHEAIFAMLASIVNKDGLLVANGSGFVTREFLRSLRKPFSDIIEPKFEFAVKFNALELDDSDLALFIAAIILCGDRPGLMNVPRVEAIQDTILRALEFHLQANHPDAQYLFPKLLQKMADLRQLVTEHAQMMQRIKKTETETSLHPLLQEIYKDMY
Protocol: (§1) Transfections were stopped after 16 h by adding DMEM/10% FCS. Cells were detached with trypsin, re-seeded in 96-well plates for 6 h in DMEM/10% FCS, and incubated for 24 h in DMEM/0.2% FCS with increasing concentrations of the test compounds or vehicle (DMSO, 0.1% final concentration). At the end of the experiment, cells were washed once with ice-cold PBS, lysed, and luciferase and β-galactosidase activities were measured. Luciferase activity was normalised to that of the internal control, β-galactosidase. All transfection experiments were performed at least five times.
(§2) EC50 values against human PPARα/Gal4, PPARβ/δ/Gal4 and PPARγ/Gal4 receptors.

[2] = tested on: PDK4-(PPRE)3-Luc+; test: Pdk4 transactivation assay (PDK4-(PPRE)3-Luc+ reporter in L929sA cells); assay type: cell-based, mouse; details: 10 µM, 6 h, L929sA cells; compared to GW7647 at 1 µM
Protocol: Transfection of L929sA cells stably expressing reporter genes was performed using the calcium phosphate precipitation protocol according to standard procedures with a 10-fold excess of the plasmid of interest in a pGL3-basic vector containing Luc+, a modified firefly luciferase gene (Promega Biotec, Madison, Wis,) USA. USA). The Pdk4 reporter was created using an enhancer site linked to the Pdk4 promoter containing three PPRE extracted from mouse liver genomic DNA. The aforementioned plasmid construct was then introduced into a pMet7 backbone, which had previously been cloned with a luciferase gene site, using Xhol and Sacl cut sites. The resulting construct was subjected to geneticin (neomycin) antibiotic selection to isolate individual clones. A stable cell line, designated Pdk4-Luc+, was subsequently established in L929sA cells, which also contained a constitutively expressed galactosidase reporter and a neomycin selection cassette.
(§3) Pyruvate Dehydrogenase Kinase 4 gene (Pdk4), a well-known target gene of PPARs, encodes a protein that regulates the phosphorylation and inactivation of the pyruvate dehydrogenase complex in response to physiological conditions. This response switches the energy source from glucose to fatty acids to maintain blood glucose levels to, thereby, increase lipid metabolism. Because it is a well-known target gene of PPARs, the effect of the 2- and 3-prenylated esters of tetrahydroquinolines and quinolines on a Pdk4 region reported to bind PPARα, was evaluated. The L929sA cells that were stably transfected with a PDK4-(PPRE)3-Luc+ reporter gene construct were used.

[3] = biological target: T2, hPPARγ (Homo sapiens, UniProt P37231); test: PPAR transactivation assay, human chimeric PPAR/Gal4 reporter luciferase system in Cos-7 cells (PPARγ); assay type: cell-based; details: for Emax at 10 µM: COS-7, read-out: Efficacy (%) at 10 µmol/L PPARγ; for EC50: human PPARγ/Gal4, Cos-7 cells, concentration range 0.001-10 µmol/L, NA: not active
T2 sequence (P37231 238-505): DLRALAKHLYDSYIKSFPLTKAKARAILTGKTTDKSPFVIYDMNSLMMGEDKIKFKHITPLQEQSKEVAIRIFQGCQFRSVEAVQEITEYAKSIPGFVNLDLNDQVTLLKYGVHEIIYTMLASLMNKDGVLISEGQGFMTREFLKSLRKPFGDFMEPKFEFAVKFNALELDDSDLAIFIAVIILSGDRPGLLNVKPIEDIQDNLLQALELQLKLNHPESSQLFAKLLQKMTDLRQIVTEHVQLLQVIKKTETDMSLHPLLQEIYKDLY
Protocol: as §1, §2

[4] = biological target: T3, hPPARα (Homo sapiens, UniProt Q07869); test: PPAR transactivation assay, human chimeric PPAR/Gal4 reporter luciferase system in Cos-7 cells (PPARα); assay type: cell-based; details: for Emax: COS-7, read-out: efficiencies times higher than the prior art compound WY-14,643; for Emax at 10 µM: COS-7, read-out: Efficacy (%) at 10 µmol/L PPARα
T3 sequence (Q07869 167-468): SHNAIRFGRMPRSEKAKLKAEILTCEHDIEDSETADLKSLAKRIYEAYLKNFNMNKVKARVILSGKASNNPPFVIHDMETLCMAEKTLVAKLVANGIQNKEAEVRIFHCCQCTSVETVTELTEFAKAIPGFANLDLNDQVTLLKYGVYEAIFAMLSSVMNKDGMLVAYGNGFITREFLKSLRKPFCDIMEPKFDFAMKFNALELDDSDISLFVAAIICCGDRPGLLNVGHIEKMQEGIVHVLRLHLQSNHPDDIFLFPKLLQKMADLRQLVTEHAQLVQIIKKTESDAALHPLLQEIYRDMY
Protocol: as §1, §2

[5] = tested on: THP-1 cells; test: Cytotoxicity, Annexin V-FITC/PI dual staining by flow cytometry; assay type: cell-based, human; details: 30 and 100 µM, 24 h
Protocol: The cytotoxicity of tetrahydroquinoline and quinoline esters 5a, 5b, 8a and 8b was evaluated at 30 and 100 µM by flow cytometry to assess cell survival using an Annexin V-FITC/PI dual staining assay. THP-1 cells (3 × 10^4 cells per well) were seeded in 24-well plates and allowed to grow overnight. The medium was then replaced and incubations with the different compounds or DMSO were performed during 24 h. Then, all cells were processed with the Annexin V-assay kit (ANXCFK7, Immunostep, Salamanca, Spain) according to the manufacturer's instruction. A Becton Dickinson LSR Fortessa cytometer (BD Biosciences, Franklin Lakes, NJ, USA) was used for samples, and cell analysis were performed using FACSDiva X20 software.
The potential cytotoxic effects of the compounds of the invention 5a, 5b, 8a, and 8b on the human macrophage cell line THP-1 were evaluated by flow cytometry to assess cell survival using an Annexin V-FITC/PI dual staining assay. The THP-1 cells were treated with concentrations of 30 and 100 µM for 24 h.

[6] = tested on: TNFα-induced proinflammatory genes; test: TNFα-induced pro-inflammatory gene expression by RT-qPCR in L929sA WT cells; assay type: cell-based, mouse; details: 10 µM for 1 h, then TNFa, total induction time 6 h
Protocol: (§4) RNA was isolated using the RNeasy Purification Kit (Qiagen) according to the manufacturer's instructions. cDNA was synthesised using a PrimeScript kit (Takara). RT-qPCR was performed using Light Cycler 480 SYBR Green I Master Mix (Roche).
(§5) PPARs play crucial roles in controlling inflammatory responses. NF-κB is a transcription factor that plays a pivotal role in the expression of multiple genes involved in the immune and inflammatory responses. To study the potential anti-inflammatory effects of the tetrahydroquinolines and quinolines of the invention, the NF-κB-dependent physiological human IL-8 promoter construct, p1481.IL8P-Luc+, which is stably integrated into L929sA cells, was tested. After transfection, cells were treated at 10 µM with 5a, 5b, 8a, or 8b prior to TNFa stimulation. […] Given the significant decrease in NF-κB-IL8P-Luc+ reporter gene activity observed after treatment with the 2- or 3-prenylated tetrahydroquinolines 5a and 5b and the 3-prenylated quinoline 8b, their potential anti-inflammatory effects at the transcriptional level for other inflammatory mediators was evaluated. To achieve this, the L929sA WT cells were treated with 5a, 5b and 8b at 10 µM for 1 h, followed by TNFa stimulation for a total induction time of 6 h. The expression of inflammatory genes was evaluated by RT-qPCR.

[7] = tested on: NF-κB-IL8P-Luc+; test: NF-κB-IL8P transactivation assay (TNFα-stimulated L929sA cells); assay type: cell-based, mouse; details: 10 µM, 1 h before TNF (2000 IU/ml), total induction time 6 h; compared to GW7647
Protocol: L929sA mouse fibroblasts were stably transfected using the calcium phosphate precipitation protocol, as described previously with p1481.IL8P-Luc+ plasmid construct. The indicated induction was performed at least in triplicates. All conditions were solvent-controlled. Subsequently, the cells were washed with PBS and lysed using TROPIX lysis buffer. Cellular luciferase levels were normalised to those of β-galactosidase (TROPIX, Bedford, MA, USA).
as §5

[8] = tested on: hPPARα, hPPARβ/δ, and hPPARγ; test: PPAR transactivation assays, agonist profile over the three isoforms; details: always with partial activity on the PPARγ isoform
[9] = tested on: Pdk4; test: Pdk4 mRNA expression by RT-qPCR in L929sA WT cells; assay type: cell-based, mouse; details: 10 µM, 6 h
Protocol: as §4, §3

SMILES	Emax at 10 µM [1] [%]	EC50 [1] [nM]	transactivation of the PDK4-Luc+ indicator [2]	Emax at 10 µM [3] [%]	EC50 [3] [nM]	EC50 [4] [nM]	Emax [4] [%]	Emax at 10 µM [4] [%]	cytotoxic effects (cell survival) [5]	transcription of TNFα-induced proinflammatory genes [6]	transactivation of the TNFα-dependent NF-κB-driven reporter [7]	PPAR agonist activity profile [8]	expression of Pdk4 mRNA [9]
CCOC(=O)CC/C(C)=C/CC1Cc2cc(OCc3ccccc3)ccc2N(C)C1C (stereo not shown) [Compound 5b, Ethyl (E)-6-(6-(benzyloxy)-1,2-dimethyl-1,2,3,4-tetrahydroquinolin-3-yl)-4-methylhex-4-enoate]	7	5800	increased the transactivation of the PDK4-Luc+ indicator	15	16900	1900	300 to 400	328	No cytotoxic effects were observed	downregulated the transcription of TNFα-induced proinflammatory genes such as Cc/5 and II-6	can repress the transactivation of the TNFα-dependent NF-κB-driven reporter	selective PPARα	increased expression levels of Pdk4
C/C(=C\CCC1CCc2cc(OCc3ccccc3)ccc2N1C)CCC(=O)O (stereo not shown) [Compound 6a, (E)-7-(6-(benzyloxy)-1-methyl-1,2,3,4-tetrahydroquinolin-2-yl)-4-methylhept-4-enoic acid]	73	4600		36	3900	2900		144				pan-PPAR agonist activity	
C/C(=C\CC1Cc2cc(OCc3ccccc3)ccc2N(C)C1C)CCC(=O)O (stereo not shown) [Compound 6b, (E)-6-(6-(benzyloxy)-1,2-dimethyl-1,2,3,4-tetrahydroquinolin-3-yl)-4-methylhex-4-enoic acid]	35	5800		24	1700	1300	300 to 400	461				selective PPARα	
CCOC(=O)CC/C(C)=C/CCc1ccc2cc(OCc3ccccc3)ccc2n1 [Compound 8a, Ethyl (E)-7-(6-(benzyloxy)quinolin-2-yl)-4-methylhept-4-enoate]	32	2000	increased the transactivation of the PDK4-Luc+ indicator			2800		210	No cytotoxic effects were observed				
CCOC(=O)CC/C(C)=C/Cc1cc2cc(OCc3ccccc3)ccc2nc1C [Compound 8b, Ethyl (E)-6-(6-(benzyloxy)-2-methylquinolin-3-yl)-4-methylhex-4-enoate]	2	7900		37	1000	2200		221	No cytotoxic effects were observed	downregulated the transcription of TNFα-induced proinflammatory genes such as Cc/5 and II-6	can repress the transactivation of the TNFα-dependent NF-κB-driven reporter	dual PPARα/γ agonist activity	
C/C(=C\CCc1ccc2cc(OCc3ccccc3)ccc2n1)CCC(=O)O [Compound 9a, (E)-7-(6-(benzyloxy)quinolin-2-yl)-4-methylhept-4-enoic acid]	14	1100		39	3300	3600		104				dual PPARα/γ agonist activity	
C/C(=C\Cc1cc2cc(OCc3ccccc3)ccc2nc1C)CCC(=O)O [Compound 9b, (E)-6-(6-(benzyloxy)-2-methylquinolin-3-yl)-4-methylhex-4-enoic acid]	2	5100		25	900	1800		218				dual PPARα/γ agonist activity	
